The target in assay [1] is human A2A adenosine receptor (Homo sapiens (Human), UniProt P29274). Put plainly: A2A binding affinity using radioligand binding, Method (A). The conditions noted are these: Method (A): filtration radioligand binding, [3H] SCH58261, membranes expressing human A2A. The text has this: (§1) Method (A) describes the procedure used to measure A2A binding affinity using radioligand binding. Method (B) describes the procedure used to measure A2A binding affinity using SPA technology. The method used to measure A2B binding affinity is also described below. The method used to determine the A2A IC50 value reported for each compound in the table is indicated next to the reported value. The A2B IC50 value measured using the A2B binding affinity assay is shown in the table next to the compound under the corresponding A2A value.
Chain of human A2A adenosine receptor (P29274 whole entry): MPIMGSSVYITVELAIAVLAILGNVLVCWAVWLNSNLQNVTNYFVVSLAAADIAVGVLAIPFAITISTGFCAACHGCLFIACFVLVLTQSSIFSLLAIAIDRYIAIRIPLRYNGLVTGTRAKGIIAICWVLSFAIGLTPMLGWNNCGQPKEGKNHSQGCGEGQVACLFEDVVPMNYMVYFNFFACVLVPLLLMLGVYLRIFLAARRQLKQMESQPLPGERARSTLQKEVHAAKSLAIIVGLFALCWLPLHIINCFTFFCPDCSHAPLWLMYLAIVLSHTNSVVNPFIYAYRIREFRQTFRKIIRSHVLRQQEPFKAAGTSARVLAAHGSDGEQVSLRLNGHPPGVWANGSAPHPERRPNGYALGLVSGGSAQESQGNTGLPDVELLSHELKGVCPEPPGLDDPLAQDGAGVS
The A2A receptor affinity binding assay measured the amount of binding of a tritiated ligand with high affinity for the A2A adenosine receptor to membranes made from HEK293 or CHO cells recombinantly expressing the human A2A adenosine receptor, in the presence of varying concentrations of a compound of the invention. The data were generated using either filtration binding or a homogenous scintillation proximity assay (SPA).
Method (A): Measurement of A2A Binding Affinity Using Radioligand Binding
148 μL (5 μg/mL) membranes (Perkin Elmer, Cat. No. RBHA2aM400UA) and 2 μL compounds of the invention to be tested (test compound) were transferred to individual wells of a 96-well polypropylene assay plate and incubated for 15 to 30 min at room temperature. [^3H] SCH58261 ((7-(2-phenylethyl)-5-amino-2-(2-furyl)-pyrazolo-[4,3-e]-1,2,4-triazolo[1,5-c]pyrimidine)) was diluted in assay buffer (50 mM Tris pH 7.4, 10 mM MgCl2, 0.005% Tween20) to a concentration of 4 nM and 50 μL transferred to each well of the assay plate. To define total and non-specific binding, wells containing 1% DMSO and 1 μM ZM241385 (Tocris Bioscience, Cat. No. 1036) respectively, were also included. The assay plate was incubated at room temperature for 60 min with agitation. Using a FilterMate Harvester® (Perkin Elmer), the contents of the assay plate were filtered through a UniFilter-96® PEI coated plate (Perkin Elmer Cat. No. 6005274 or 6005277). Filtering was achieved by aspirating the contents of the assay plate for 5 sec, then washing and aspirating the contents three times with ice-cooled wash buffer (50 mM Tris-HCl pH 7.4, 150 mM NaCl) and allowing the vacuum manifold to dry the plate for 30 sec. The filter plate was incubated for at least 1 h at 55° C. and allowed to dry. The bottom of the filter plate was sealed with backing tape. 40 μL Ultima Gold™ (Perkin Elmer, Cat. No. 6013329) was added to each well of the filter plate and the top of the plate was sealed with TopSeal-A PLUS® clear plate seal (Perkin Elmer, Cat. No. 6050185). The plate was incubated for at least 20 min, and then the amount of radioactivity remaining in each well was determined using a TopCount® (Perkin Elmer) scintillation counter. After normalization to total and non-specific binding, the percent effect at each compound concentration was calculated. The plot of percent effect versus the log of compound concentration was analyzed electronically using a 4-parameter logistic fit based on the Levenberg-Marquardt algorithm to generate IC50 values.

Assay [2] has as its target human A2B adenosine receptor (Homo sapiens (Human), UniProt P29275). Put plainly: A2B binding affinity, radioligand filtration binding assay. The conditions noted are these: HEK293 membranes expressing human A2B, tritiated proprietary antagonist.
Text: as §1
Measurement of A2B Binding Affinity
The reported affinity of the compounds of the invention for the human A2B adenosine receptor was determined experimentally using a radioligand filtration binding assay. This assay measures the amount of binding of a tritiated proprietary A2B receptor antagonist, in the presence and absence of a compound of the invention, to membranes made from HEK293 cells recombinantly expressing the human A2B adenosine receptor (Perkin Elmer, Cat. No. ES-013-C).
148 μL (135 μg/mL) membranes and 2 μL test compounds were transferred to individual wells of a 96-well polypropylene assay plate and incubated for 15 to 30 min at room temperature with agitation. Tritiated radioligand was diluted to a concentration of 14 nM in assay buffer (phosphate buffered saline without Magnesium and Calcium, pH 7.4; GE Healthcare Life Sciences, Cat. No. SH30256.01) and then 50 μL of the solution were transferred to each well of the assay plate. To define total and non-specific binding, wells containing 1% DMSO and 20 μM N-ethylcarboxamidoadenosine (Tocris Bioscience, Cat. No. 1691) respectively, were also included. The wells of the assay plate were incubated at room temperature for 60 min with agitation, then filtered using a FilterMate Harvester® (Perkin Elmer) or similar equipment through a UniFilter-96@ PEI coated plate (Perkin Elmer Cat. No. 6005274 or 6005277). Filtering was achieved by aspirating the contents of the assay plate for 5 sec, then washing and aspirating the contents three times with ice-cooled wash buffer (assay buffer supplemented with 0.0025% Brij58) and allowing the vacuum manifold to dry the plate for 30 sec. The filter plate was incubated for at least 1 h at 55° C. and allowed to dry. The bottom of the filter plate was then sealed with backing tape. 40 μL Ultima Gold™ (Perkin Elmer, Cat. No. 6013329) was added to each well of the filter plate and the top of the plate was sealed with TopSeal-A PLUS® clear plate seal (Perkin Elmer, Cat. No. 6050185). The plates were then incubated for at least 20 min, and then the amount of radioactivity remaining in each well was determined using a TopCount® (Perkin Elmer) scintillation counter. After normalization to total and non-specific binding, the percent effect at each compound concentration was calculated. The plot of percent effect versus the log of compound concentration was analyzed electronically using a 4-parameter logistic fit based on the Levenberg-Marquardt algorithm to generate IC50 values.

Chain of human A2B adenosine receptor (P29275 whole entry): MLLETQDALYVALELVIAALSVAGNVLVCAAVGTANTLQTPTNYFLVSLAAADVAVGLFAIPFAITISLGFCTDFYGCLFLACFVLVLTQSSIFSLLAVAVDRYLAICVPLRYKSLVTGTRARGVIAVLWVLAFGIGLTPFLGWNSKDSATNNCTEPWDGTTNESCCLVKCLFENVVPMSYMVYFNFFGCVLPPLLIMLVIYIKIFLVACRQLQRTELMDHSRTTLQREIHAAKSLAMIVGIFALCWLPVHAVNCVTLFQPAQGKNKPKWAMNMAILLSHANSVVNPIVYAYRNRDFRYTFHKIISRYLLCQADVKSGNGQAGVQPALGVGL

With `COc1ccc2c(c1)nc(N)n1nc(CCS(=O)(=O)c3ccc(F)cc3)nc21` [Example 13.7, 2-(2-((4-fluorophenyl)sulfonyl)ethyl)-8-methoxy-[1,2,4]triazolo[1,5-c]quinazolin-5-amine], the IC50 in assay [1] was found to be 170 nM; in assay [2] (value given with marker (A)), 607 nM.

As to `COc1cccc2c1nc(N)n1nc([C@@H](C)CO)nc21` [Example 17.3, (R)-2-(5-amino-7-methoxy-[1,2,4]triazolo[1,5-c]quinazolin-2-yl)propan-1-ol], the IC50 in assay [1] stood at 264 nM; in assay [2] (value given with marker (B)), 2990 nM.

With `COc1cc(F)cc2c1nc(N)n1nc(COCc3ccc(C(O)(C(F)(F)F)C(F)(F)F)cc3)nc21` [Example 4.16, 2-(4-(((5-amino-9-fluoro-7-methoxy-[1,2,4]triazolo[1,5-c]quinazolin-2-yl)methoxy)methyl)phenyl)-1,1,1,3,3,3-hexafluoropropan-2-ol], the values for the IC50 in assay [1] and in assay [2] (value given with marker (A)) were 0.3 nM and 0.9 nM, respectively.

For the compound `CCS(=O)(=O)CCc1nc2c3ccc(OC)cc3nc(N)n2n1` [Example 13.9, 2-(2-(ethylsulfonyl)ethyl)-8-methoxy-[1,2,4]triazolo-[1,5-c]quinazolin-5-amine], the IC50 in assay [1] was 246 nM; in assay [2] (value given with marker (A)) it was 1060 nM.

In the case of `CCS(=O)(=O)CCc1nc2c3cc(F)c(OC)cc3nc(N)n2n1` [Example 13.12, 2-(2-(ethylsulfonyl)ethyl)-9-fluoro-8-methoxy-[1,2,4]triazolo[1,5-c]quinazolin-5-amine], the IC50 was determined as 165 nM in assay [1] and 1720 nM in assay [2] (value given with marker (A)).

`COc1cc2nc(N)n3nc(CC(C)S(C)(=O)=O)nc3c2cc1F` (single isomer, unassigned) [Example 13.2A, (S or R)-9-fluoro-8-methoxy-2-(2-(methylsulfonyl)propyl)-[1,2,4]triazolo[1,5-c]quinazolin-5-amine]: the IC50 in assay [1] amounted to 0.7 nM; in assay [2] (value given with marker (A)) it was 61.4 nM.

Regarding `COc1cccc2c1nc(N)n1nc(CS(=O)(=O)c3ccccc3)nc21` [Example 6.6, 7-methoxy-2-((phenylsulfonyl)methyl)-[1,2,4]triazolo-[1,5-c]quinazolin-5-amine], the IC50 turned out to be 4.2 nM in assay [1] and 3780 nM in assay [2] (value given with marker (B)).

Regarding `COc1cc(F)cc2c1nc(N)n1nc(CCCS(=O)(=O)C3CC3)nc21` [Example 13.18, 2-(3-(cyclopropylsulfonyl)propyl)-9-fluoro-7-methoxy-[1,2,4]triazolo[1,5-c]quinazolin-5-amine], the IC50 in assay [1] is 1.1 nM; in assay [2] (value given with marker (A)), 112 nM.

Take `COc1cccc2c1nc(N)n1nc(CCS(C)(=O)=O)nc21` [Example 6.3, 7-methoxy-2-(2-(methylsulfonyl)ethyl)-[1,2,4]-triazolo[1,5-c]quinazolin-5-amine]: the IC50 in assay [1] stood at 8.2 nM; in assay [2] (value given with marker (A)) it was 535 nM.

On to `COc1cc(F)cc2c1nc(N)n1nc(CCS(=O)(=O)CC(C)C)nc21` [Example 13.11, 9-fluoro-2-(2-(isobutylsulfonyl)ethyl)-7-methoxy-[1,2,4]triazolo[1,5-c]quinazolin-5-amine], for which the IC50 is 28.8 nM in assay [1] and 666 nM in assay [2] (value given with marker (A)).

With `COc1cc(F)cc2c1nc(N)n1nc(CC3CC3c3ccc(C(C)(C)N)cc3)nc21` (single isomer, unassigned) [Example 8.4B, 2-(((1R,2S or 1S,2R)-2-(4-(2-aminopropan-2-yl)phenyl)-cyclopropyl)methyl)-9-fluoro-7-methoxy-[1,2,4]triazolo-[1,5-c]quinazolin-5-amine], the IC50 in assay [1] was determined as 3.1 nM; in assay [2] (value given with marker (A)), 139 nM.

For `COc1cc2nc(N)n3nc(CCS(N)(=O)=O)nc3c2cc1F` [Example 6.5, 2-(5-amino-9-fluoro-8-methoxy-[1,2,4]triazolo-[1,5-c]quinazolin-2-yl)ethane-1-sulfonamide], the figures for the IC50 in assay [1] and in assay [2] (value given with marker (A)) were 107 nM and 113 nM, respectively.

As for `COc1cccc2c1nc(N)n1nc(CC3CC3c3ccc(C(C)(C)N)cc3)nc21` (single isomer, unassigned) [Example 8.5B, 2-(((IR,2S or 1S,2R)-2-(4-(2-aminopropan-2-yl)phenyl)cyclopropyl)methyl)-7-methoxy-[1,2,4]triazolo[1,5-c]quinazolin-5-amine], the IC50 in assay [1] was 1.3 nM; in assay [2] (value given with marker (A)), 3.3 nM.

For `COc1cccc2c1nc(N)n1nc(C[C@@H](C)O)nc21` [Example 18.4, (R)-1-(5-amino-7-methoxy-[1,2,4]triazolo[1,5-c]quinazolin-2-yl)propan-2-ol], the IC50 is 15.1 nM in assay [1] and 209 nM in assay [2] (value given with marker (B)).

With `COc1cc2nc(N)n3nc(CCS(=O)(=O)c4ccccc4)nc3c2cc1F` [Example 6.2, 9-fluoro-8-methoxy-2-(2-(phenylsulfonyl)ethyl)-[1,2,4]triazolo[1,5-c]quinazolin-5-amine], the IC50 was 4.8 nM in assay [1] and 455 nM in assay [2] (value given with marker (A)).

Consider `COc1cccc2c1nc(N)n1nc(C[C@H](C)O)nc21` [Example 18.3, (S)-1-(5-amino-7-methoxy-[1,2,4]triazolo[1,5-c]quinazolin-2-yl)propan-2-ol], for which the results for the IC50 in assay [1] and in assay [2] (value given with marker (B)) were 6.7 nM and 214 nM, respectively.

In the case of `COc1cc2nc(N)n3nc(CCS(C)(=O)=O)nc3c2cc1F` [Example 6.4, 9-fluoro-8-methoxy-2-(2-(methylsulfonyl)ethyl)-[1,2,4]triazolo[1,5-c]quinazolin-5-amine], the IC50 in assay [1] came out at 222 nM; in assay [2] (value given with marker (A)), 1900 nM.

Take `COc1cccc2c1nc(N)n1nc(CC(C)(C)O)nc21` [Example 18.2, 1-(5-amino-7-methoxy-[1,2,4]triazolo[1,5-c]quinazolin-2-yl)-2-methylpropan-2-ol]: the results for the IC50 in assay [1] and in assay [2] (value given with marker (B)) were 30.8 nM and 128 nM, respectively.

Take `COc1cc2nc(N)n3nc(CCS(=O)(=O)CC(C)C)nc3c2cc1F` [Example 13.16, 9-fluoro-2-(2-(isobutylsulfonyl)ethyl)-8-methoxy-[1,2,4]triazolo[1,5-c]quinazolin-5-amine]: the IC50 in assay [1] came out at 107 nM; in assay [2] (value given with marker (A)) it was 1080 nM.

Consider `COc1cc(F)cc2c1nc(N)n1nc(COCc3ccc(C(C)(C)O)cc3)nc21` [Example 4.14, 2-(4-(((5-amino-9-fluoro-7-methoxy-[1,2,4]triazolo[1,5-c]quinazolin-2-yl)methoxy)methyl)phenyl)propan-2-ol], for which the IC50 was 0.2 nM in assay [1] and 9.1 nM in assay [2] (value given with marker (A)).

(Values after US20240076297A1, “ADENOSINE A2A AND A2B RECEPTOR DUAL ANTAGONISTS FOR IMMUNO-ONCOLOGY” (Merck Sharp & Dohme LLC, priority 2020, published 2024).)
